These results are taken from patent publication US20230312576A1, “4-(7H-PYRROLO[2,3-D]PYRIMIDIN-4-YL)-3,6-DIHYDROPYRIDINE-1-(2H)-CARBOXAMIDE DERIVATIVES AS LIMK AND/OR ROCK KINASES INHIBITORS FOR USE IN THE TREATMENT OF CANCER” (CENTRE NATIONAL DE LA RECHERCHE SCIENTIFIQUE, priority 2020, published 2023).

Where two headings read alike, the source gives them in different places.

For assay [1], the target named is ROCK1 (Homo sapiens (Human), UniProt Q13464). Put plainly: Z'Lyte assay, ROCK1 inhibition at a single concentration. It counts as biochemical.
In assay [2] the target is LIMK2 (Homo sapiens (Human), UniProt P53671). Nature of the assay: Lanthascreen Eu binding assay (TR-FRET), inhibition of LIMK2. To be noted: Lanthascreen Eu binding assay.
Assay [3] concerns the target ROCK2 (Homo sapiens (Human), UniProt O75116). Put plainly: Z'Lyte assay, ROCK2 inhibition at a single concentration. The assay is classed as biochemical.
For assay [4], the target named is LIMK1 (Homo sapiens (Human), UniProt P53667). Put plainly: Lanthascreen Eu binding assay (TR-FRET), inhibition of LIMK1. To be noted: Lanthascreen Eu binding assay. On the technique in general: TR-FRET usually uses a lanthanide donor and a delayed reading to cut background.
The mark [5] stands for this setting: read-out: % inhibition (ROCK1) 1 uM, 1 uM.
Setting [6] is: read-out: % inhibition (ROCK2) 1 uM, 1 uM.
The mark [7] stands for this setting: read-out: % inhibition (ROCK1) 1 uM.
[8] abbreviates: read-out: % inhibition (ROCK2) 1 uM.

Sequence of LIMK2 (P53671 whole entry): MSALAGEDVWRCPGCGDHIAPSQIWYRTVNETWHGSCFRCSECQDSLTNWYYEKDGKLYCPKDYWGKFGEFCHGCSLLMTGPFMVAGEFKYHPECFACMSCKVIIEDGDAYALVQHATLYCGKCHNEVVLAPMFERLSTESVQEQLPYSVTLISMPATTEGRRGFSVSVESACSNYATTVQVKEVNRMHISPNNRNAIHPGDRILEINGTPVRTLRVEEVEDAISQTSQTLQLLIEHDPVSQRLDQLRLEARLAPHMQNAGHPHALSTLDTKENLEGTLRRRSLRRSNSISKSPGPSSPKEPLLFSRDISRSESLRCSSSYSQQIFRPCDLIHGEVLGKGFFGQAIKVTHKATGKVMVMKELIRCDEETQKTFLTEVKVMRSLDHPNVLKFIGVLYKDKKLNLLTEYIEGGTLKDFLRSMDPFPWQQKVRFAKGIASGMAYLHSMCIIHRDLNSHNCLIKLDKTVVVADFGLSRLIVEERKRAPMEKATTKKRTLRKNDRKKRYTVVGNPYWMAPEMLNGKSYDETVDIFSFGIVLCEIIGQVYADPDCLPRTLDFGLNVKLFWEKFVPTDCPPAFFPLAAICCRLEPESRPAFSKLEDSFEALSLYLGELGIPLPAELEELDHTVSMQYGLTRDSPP
Sequence of ROCK2 (O75116 whole entry): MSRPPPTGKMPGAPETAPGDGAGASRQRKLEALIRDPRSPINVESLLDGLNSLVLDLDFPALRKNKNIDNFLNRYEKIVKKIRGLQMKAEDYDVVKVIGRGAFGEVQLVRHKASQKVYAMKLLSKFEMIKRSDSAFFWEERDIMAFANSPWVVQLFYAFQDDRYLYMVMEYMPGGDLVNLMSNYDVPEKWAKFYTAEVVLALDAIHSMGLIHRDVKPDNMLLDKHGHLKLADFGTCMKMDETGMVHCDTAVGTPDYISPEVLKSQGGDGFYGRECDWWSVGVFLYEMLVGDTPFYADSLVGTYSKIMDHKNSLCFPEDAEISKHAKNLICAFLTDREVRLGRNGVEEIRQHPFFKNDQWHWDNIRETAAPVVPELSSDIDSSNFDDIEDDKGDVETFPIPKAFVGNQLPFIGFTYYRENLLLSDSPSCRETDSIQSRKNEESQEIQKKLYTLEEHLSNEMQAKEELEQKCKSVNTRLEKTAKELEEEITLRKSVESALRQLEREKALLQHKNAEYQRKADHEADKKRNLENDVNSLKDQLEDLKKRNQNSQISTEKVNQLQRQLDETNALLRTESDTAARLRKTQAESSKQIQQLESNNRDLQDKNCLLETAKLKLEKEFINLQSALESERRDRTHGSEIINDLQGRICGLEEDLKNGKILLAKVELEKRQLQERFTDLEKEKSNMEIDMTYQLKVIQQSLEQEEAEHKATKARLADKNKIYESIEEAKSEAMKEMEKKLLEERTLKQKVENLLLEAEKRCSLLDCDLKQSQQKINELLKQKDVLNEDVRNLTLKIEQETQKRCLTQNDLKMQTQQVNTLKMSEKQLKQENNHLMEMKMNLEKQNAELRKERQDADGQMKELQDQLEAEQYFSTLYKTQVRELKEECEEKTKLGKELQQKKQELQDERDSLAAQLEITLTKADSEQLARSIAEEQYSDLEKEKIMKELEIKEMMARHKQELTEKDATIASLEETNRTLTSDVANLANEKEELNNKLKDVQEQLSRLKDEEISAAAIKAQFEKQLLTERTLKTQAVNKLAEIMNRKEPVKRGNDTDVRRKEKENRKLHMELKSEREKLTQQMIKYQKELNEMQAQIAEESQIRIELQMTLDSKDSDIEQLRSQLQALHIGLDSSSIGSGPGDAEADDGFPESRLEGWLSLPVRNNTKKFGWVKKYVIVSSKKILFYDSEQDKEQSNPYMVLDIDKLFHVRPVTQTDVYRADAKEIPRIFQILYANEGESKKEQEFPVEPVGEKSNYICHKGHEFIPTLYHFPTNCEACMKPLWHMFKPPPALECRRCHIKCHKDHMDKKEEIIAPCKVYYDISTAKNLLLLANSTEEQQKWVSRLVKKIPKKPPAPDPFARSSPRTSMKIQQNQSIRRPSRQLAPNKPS
Sequence of ROCK1 (Q13464 whole entry): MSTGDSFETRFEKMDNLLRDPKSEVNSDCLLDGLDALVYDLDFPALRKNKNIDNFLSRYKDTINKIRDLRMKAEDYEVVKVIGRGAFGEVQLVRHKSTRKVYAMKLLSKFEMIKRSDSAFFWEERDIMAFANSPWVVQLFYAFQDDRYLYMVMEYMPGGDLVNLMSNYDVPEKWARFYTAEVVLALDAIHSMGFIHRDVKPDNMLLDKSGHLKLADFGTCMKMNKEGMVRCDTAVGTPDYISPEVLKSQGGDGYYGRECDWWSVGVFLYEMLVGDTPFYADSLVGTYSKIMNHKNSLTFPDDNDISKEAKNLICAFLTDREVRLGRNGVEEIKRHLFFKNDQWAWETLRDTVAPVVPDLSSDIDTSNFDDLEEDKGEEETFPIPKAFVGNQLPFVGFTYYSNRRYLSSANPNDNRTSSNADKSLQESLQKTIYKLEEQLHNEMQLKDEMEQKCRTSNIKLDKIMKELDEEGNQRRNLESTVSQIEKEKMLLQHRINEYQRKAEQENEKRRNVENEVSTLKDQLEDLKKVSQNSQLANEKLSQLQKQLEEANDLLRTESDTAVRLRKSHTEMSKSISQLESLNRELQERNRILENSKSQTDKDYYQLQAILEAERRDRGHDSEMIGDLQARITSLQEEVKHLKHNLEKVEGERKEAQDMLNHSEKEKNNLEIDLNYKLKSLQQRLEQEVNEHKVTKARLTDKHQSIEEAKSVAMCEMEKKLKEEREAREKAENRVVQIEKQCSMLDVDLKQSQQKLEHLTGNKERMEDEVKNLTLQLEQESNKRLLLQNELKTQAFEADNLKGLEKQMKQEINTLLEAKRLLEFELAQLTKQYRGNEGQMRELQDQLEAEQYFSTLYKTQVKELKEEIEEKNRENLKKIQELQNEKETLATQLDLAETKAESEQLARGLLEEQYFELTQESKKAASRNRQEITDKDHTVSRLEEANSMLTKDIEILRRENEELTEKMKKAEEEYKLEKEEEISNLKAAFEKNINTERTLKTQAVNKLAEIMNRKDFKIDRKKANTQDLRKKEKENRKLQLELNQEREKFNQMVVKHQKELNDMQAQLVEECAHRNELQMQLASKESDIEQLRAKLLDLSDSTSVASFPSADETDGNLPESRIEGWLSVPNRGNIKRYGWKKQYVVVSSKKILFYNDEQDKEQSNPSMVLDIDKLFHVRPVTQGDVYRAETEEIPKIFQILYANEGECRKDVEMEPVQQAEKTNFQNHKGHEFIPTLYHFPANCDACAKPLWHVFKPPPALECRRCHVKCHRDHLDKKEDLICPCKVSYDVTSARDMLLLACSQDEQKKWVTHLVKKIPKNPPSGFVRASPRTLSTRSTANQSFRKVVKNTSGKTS
Sequence of LIMK1 (P53667 whole entry): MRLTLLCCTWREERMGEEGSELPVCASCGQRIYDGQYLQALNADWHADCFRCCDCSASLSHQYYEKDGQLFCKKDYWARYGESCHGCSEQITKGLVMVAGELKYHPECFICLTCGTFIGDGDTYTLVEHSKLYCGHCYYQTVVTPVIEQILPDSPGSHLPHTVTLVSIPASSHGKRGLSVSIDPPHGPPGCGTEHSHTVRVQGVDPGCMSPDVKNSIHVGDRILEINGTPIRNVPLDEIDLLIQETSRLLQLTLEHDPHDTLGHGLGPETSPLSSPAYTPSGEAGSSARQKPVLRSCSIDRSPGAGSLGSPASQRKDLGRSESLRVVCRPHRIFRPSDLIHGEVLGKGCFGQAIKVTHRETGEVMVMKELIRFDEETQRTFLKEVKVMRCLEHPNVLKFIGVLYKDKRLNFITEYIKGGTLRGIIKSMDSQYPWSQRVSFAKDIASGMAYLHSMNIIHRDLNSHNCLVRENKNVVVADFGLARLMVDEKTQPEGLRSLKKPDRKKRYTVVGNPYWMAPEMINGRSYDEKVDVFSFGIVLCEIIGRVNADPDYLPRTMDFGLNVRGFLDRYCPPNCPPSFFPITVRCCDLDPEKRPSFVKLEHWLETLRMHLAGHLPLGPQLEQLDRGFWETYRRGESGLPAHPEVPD

For the compound `O=C(Nc1cccc(Oc2ccccc2)c1)N1CC=C(c2ncnc3[nH]c4c(c23)CCCC4)CC1` [Compound 126, N-(3-Phenoxyphenyl)-4-(6,7,8,9-tetrahydro-5H-pyrimido[4,5-b]indol-4-yl)-3,6-dihydropyridine-1(2H)-carboxamide], the inhibition at 1 µM in assay [1] (setting [5]) is 7%; in assay [3] (setting [6]), -5%. In addition, the Ki in assay [2] was determined as 20.5 nM; in assay [4] it was 30.2 nM.
For `Cc1c[nH]c2ncnc(C3=CCN(C(=O)Nc4cccc(OCCN5CCN(C)CC5)c4)CC3)c12` [Compound 184, 4-(5-methyl-7H-pyrrolo[2,3-d]pyrimidin-4-yl)-N-(3-(2-(4-methylpiperazin-1-yl)ethoxy)phenyl)-3,6-dihydropyridine-1(2H)-carboxamide] the same measures were 87%, 78%, 1470 nM and 710 nM.
The like results for `Cc1c[nH]c2ncnc(C3=CCN(C(=O)Nc4cccc(Oc5cccc(F)c5)c4)CC3)c12` [Compound 200, N-(3-(3-fluorophenoxy)phenyl)-4-(5-methyl-7H-pyrrolo[2,3-d]pyrimidin-4-yl)-3,6-dihydropyridine-1(2H)-carboxamide] were, in that order, 35%, 13%, 9.83 nM and 46.2 nM.
For `Cc1c[nH]c2ncnc(C3=CCN(C(=O)Nc4cccc(OCCCNC(=O)OC(C)(C)C)c4)CC3)c12` [Compound 188, tert-Butyl (3-(3-(4-(5-methyl-7H-pyrrolo[2,3-d]pyrimidin-4-yl)-1,2,3,6-tetrahydropyridine-1-carboxamido)phenoxy)propyl)carbamate] the same measures were 48%, 33%, 50.8 nM and 65 nM.
With `CC(C)(C)OC(=O)NCCCOc1cccc(-c2cccc(NC(=O)N3CC=C(c4ncnc5[nH]c6c(c45)CCC6)CC3)c2)c1` [Compound 164, tert-butyl (3-((3′-(4-(5,6,7,8-tetrahydrocyclopenta[4,5]pyrrolo[2,3-d]pyrimidin-4-yl)-1,2,3,6-tetrahydropyridine-1-carboxamido)-[1,1′-biphenyl]-3-yl)oxy)propyl)carbamate], the inhibition at 1 µM in assay [1] (setting [5]) was -2%; in assay [3] (setting [6]), 4%. Also, the Ki in assay [2] was 41.2 nM; in assay [4], 48.4 nM.
With `Cc1c[nH]c2ncnc(C3=CCN(C(=O)Nc4cccc(-n5ccnc5)c4)CC3)c12` [Compound 24, N-(3-(1H-Imidazol-1-yl)phenyl)-4-(5-methyl-7H-pyrrolo[2,3-d]pyrimidin-4-yl)-3,6-dihydropyridine-1(2H)-carboxamide], the inhibition at 1 µM is 40% in assay [1] (setting [7]) and 25% in assay [3] (setting [8]).
For `Cc1c[nH]c2ncnc(C3=CCN(C(=O)Nc4cccc(-c5cccc(OCCCNC(=O)OC(C)(C)C)c5)c4)CC3)c12` [Compound 166, tert-butyl N-[3-[3-[3-[[4-(5-methyl-7H-pyrrolo[2,3-d]pyrimidin-4-yl)-3,6-di hydro-2H-pyridine-1-carbonyl]amino]phenyl]phenoxy]propyl]carbamate], the inhibition at 1 µM in assay [1] (setting [5]) was found to be 12%; in assay [3] (setting [6]), 2%. Also, the results for the Ki in assay [2] and in assay [4] were 122 nM and 94.6 nM, respectively.
For the compound `CC(C)(C)OC(=O)NCCCOc1cccc(-c2cccc(NC(=O)N3CC=C(c4ncnc5[nH]cc(C6CC6)c45)CC3)c2)c1` [Compound 165, tert-butyl N-[3-[3-[3-[[4-(5-cyclopropyl-7H-pyrrolo[2,3-d]pyrimidin-4-yl)-3,6-dihydro-2H-pyridine-1-carbonyl]amino]phenyl]phenoxy]propyl]carbamate], the inhibition at 1 µM was -2% in assay [1] (setting [5]) and 7% in assay [3] (setting [6]). The Ki in assay [2] was 58.1 nM; in assay [4], 169 nM.
In the case of `Cc1c[nH]c2ncnc(C3=CCN(C(=O)Nc4cccc(Oc5cccc(OC(=O)N(C)C)c5)c4)CC3)c12` [Compound 216, 3-(3-(4-(5-methyl-7H-pyrrolo[2,3-d]pyrimidin-4-yl)-1,2,3,6-tetrahydropyridine-1-carboxamido)phenoxy)phenyl dimethylcarbamate], the inhibition at 1 µM in assay [1] (setting [7]) came out at 71%; in assay [3] (setting [8]), 56%. The Ki in assay [2] is 14.6 nM; in assay [4], 4.88 nM.
Take `Cc1c[nH]c2ncnc(C3=CCN(C(=O)Nc4cccc(Oc5cccnc5)c4)CC3)c12` [Compound 208, 4-(5-methyl-7H-pyrrolo[2,3-d]pyrimidin-4-yl)-N-(3-(pyridin-3-yloxy)phenyl)-3,6-dihydropyridine-1(2H)-carboxamide]: the inhibition at 1 µM was found to be 91% in assay [1] (setting [5]) and 72% in assay [3] (setting [6]). Also, the Ki in assay [2] is 7.57 nM; in assay [4], 37.3 nM.
On to `O=C(Nc1cccc(-c2ccccc2)c1)N1CC=C(c2ncnc3[nH]c4c(c23)CCC4)CC1` [Compound 123, N-([1,1′-Biphenyl]-3-yl)-4-(5,6,7,8-tetrahydrocyclopenta[4,5]pyrrolo[2,3-d]pyrimidin-4-yl)-3,6-dihydropyridine-1(2H)-carboxamide], for which the inhibition at 1 µM in assay [1] (setting [7]) turned out to be 10%; in assay [3] (setting [8]), 1%. In addition, the Ki in assay [2] was 16.2 nM; in assay [4] it was 11.5 nM.
Consider `O=C(Nc1cccc(-c2ccncc2)c1)N1CC=C(c2ncnc3[nH]c4c(c23)CCC4)CC1` [Compound 124, N-(3-(Pyridin-4-yl)phenyl)-4-(5,6,7,8-tetrahydrocyclopenta [4,5]pyrrolo[2,3-d]pyrimidin-4-yl)-3,6-dihydropyridine-1(2H)-carboxamide], for which the inhibition at 1 µM was 7% in assay [1] (setting [5]) and 2% in assay [3] (setting [6]). Moreover, the Ki in assay [2] came out at 19.6 nM; in assay [4], 6.49 nM.
The like results for `Cc1c[nH]c2ncnc(C3=CCN(C(=O)Nc4cccs4)CC3)c12` [Compound 33, 4-(5-methyl-7H-pyrrolo[2,3-d]pyrimidin-4-yl)-N-(2-thienyl)-3,6-dihydro-2H-pyridine-1-carboxamide] were, in that order, 96%, 87%, 186 nM and 50.1 nM.
Take `Cc1c[nH]c2ncnc(C3=CCN(C(=O)Nc4cccc(Oc5ccc(N(C)C)cc5)c4)CC3)c12` [Compound 42, N-[3-[4-(Dimethylamino)phenoxy]phenyl]-4-(5-methyl-7H-pyrrolo[2,3-d]pyrimidin-4-yl)-3,6-dihydro-2H-pyridine-1-carboxamide]: the inhibition at 1 µM was found to be 37% in assay [1] (setting [5]) and 31% in assay [3] (setting [6]). Besides, the Ki in assay [2] was 53.3 nM; in assay [4], 30.7 nM.
Consider `Cc1c[nH]c2ncnc(C3=CCN(C(=O)Nc4ccc(Oc5ccccc5)cc4)CC3)c12` [Compound 16, 4-(5-Methyl-7H-pyrrolo[2,3-d]pyrimidin-4-yl)-N-(4-phenoxy-phenyl)-3,6-dihydropyridine-1(2H)-carboxamide], for which the “% inhibition (ROCK1) 1 uM” value in assay [1] (1 uM) amounted to 15%. In addition, the Ki worked out at 341 nM in assay [2] and 80.1 nM in assay [4]. Further, the “% inhibition (ROCK2) 1 uM” value in assay [3] (1 uM) was found to be 14%.
On to `CN1CCc2[nH]c3ncnc(C4=CCN(C(=O)Nc5cccc(F)c5)CC4)c3c2C1` [Compound 160, N-(3-Fluorophenyl)-4-(6-methyl-6,7,8,9-tetrahydro-5H-pyrido[3′,4′:4,5]pyrrolo[2,3-d]pyrimidin-4-yl)-3,6-dihydropyridine-1(2H)-carboxamide], for which the inhibition at 1 µM in assay [1] (setting [5]) was 1%; in assay [3] (setting [6]), -9%. Moreover, the Ki was determined as 2440 nM in assay [2] and 1170 nM in assay [4].
With `CC1=CC(C)=[N+]2C1=Cc1ccc(CCC(=O)NCCCOc3cccc(-c4cccc(NC(=O)N5CC=C(c6ncnc7[nH]cc(C8CC8)c67)CC5)c4)c3)n1[B-]2(F)F` [Compound 168, N-(3′-(3-(3-(5,5-Difluoro-7,9-dimethyl-5H-dipyrrolo[1,2-c:2′,1′-f][1,3,2]diazaborinin-3-yl)propanamido)propoxy)-[1,1′-biphenyl]-3-yl)-4-(5-isopropyl-7H-pyrrolo[2,3-d]pyrimidin-4-yl)-3,6-dihydropyridine-1(2H)-carboxamide], the “% inhibition (ROCK1) 1 uM” value in assay [1] worked out at 2%. For the same compound, in assay [3], the “% inhibition (ROCK2) 1 uM” value is 20%.
For the compound `O=C(NC1CCCCC1)N1CC=C(c2ncnc3[nH]cc(C4CC4)c23)CC1` [Compound 83, N-Cyclohexyl-4-(5-cyclopropyl-7H-pyrrolo[2,3-d]pyrimidin-4-yl)-3,6-dihydropyridine-1(2H)-carboxamide], the inhibition at 1 µM is 6% in assay [1] (setting [5]) and -4% in assay [3] (setting [6]). The same compound returned a Ki in assay [4] of 90.9 nM.
`CC1=CC(C)=[N+]2C1=Cc1ccc(CCC(=O)NCCCOc3cccc(-c4cccc(NC(=O)N5CC=C(c6ncnc7[nH]cc(C)c67)CC5)c4)c3)n1[B-]2(F)F` [Compound 169, N-(3′-(3-(3-(5,5-difluoro-7,9-dimethyl-5H-dipyrrolo[1,2-c:2′,1′-f][1,3,2]diazaborinin-3-yl)propanamido)propoxy)-[1,1′-biphenyl]-3-yl)-4-(5-methyl-7H-pyrrolo [2,3-d]pyrimidin-4-yl)-3,6-dihydropyridine-1(2H)-carboxamide]: the “% inhibition (ROCK1) 1 uM” value in assay [1] came out at 10%.
In the case of `Cc1c[nH]c2ncnc(C3=CCN(C(=O)Nc4ccc5c(c4)OCO5)CC3)c12` [Compound 14, N-(Benzo[d][1,3]dioxol-5-yl)-4-(5-methyl-7H-pyrrolo[2,3-d]pyrimidin-4-yl)-3,6-dihydropyridine-1(2H)-carboxamide], the inhibition at 1 µM in assay [1] (setting [7]) came out at 79%; in assay [3] (setting [8]), 59%.
Regarding `Cc1c[nH]c2ncnc(C3=CCN(C(=O)Nc4ccc(Cl)c(C(F)(F)F)c4)CC3)c12` [Compound 12, N-(4-Chloro-3-(trifluoromethyl)phenyl)-4-(5-methyl-7H-pyrrolo[2,3-d]pyrimidin-4-yl)-3,6-dihydropyridine-1(2H)-carboxamide], the inhibition at 1 µM in assay [1] (setting [5]) stood at 79%; in assay [3] (setting [6]) it was 69%.

The inhibition is the relative decrease from the control value, in per cent. In general, Ki refers to the dissociation constant of the complex between target and ligand, obtained from inhibition or displacement.
